# Data reported in US20200405739A1, “MTOR INHIBITOR, PHARMACEUTICAL COMPOSITION AND USE THEREOF” (SHENYANG FUYANG PHARMACEUTICAL TECHNOLOGY CO., LTD., priority 2018, published 2020).
# Key:
# [1] = human body; cited from earlier work
# [2] = system: PI3K/Akt/mTOR signaling pathway protein; test: Western blot of PI3K/Akt/mTOR pathway proteins in A549 cells (Test Example 2); type: cell-based, human; conditions: 24 h; for activation of PI3K protein, 4EBP1 protein, mTOR protein / expression of Akt protein and S6K1 protein and of their activated proteins: Western blot
# Procedure: A549 cells were purchased from American Type Culture Collection (ATCC, Manassas, Va., USA). The cells were cultured in a DMEM medium containing 10% fetal bovine serum, 2% glutamine and penicillin (100 U/ml) in an incubator at 37° C. with 5% CO2. The cells used in the experiment were all cells in logarithmic phase.
# A549 was an adherent cell, cells in logarithmic growth phase was selected as the experimental group.
# 1) 60-100 μl of lysate was added to each tube of cells, and was subjected to ice bath in a refrigerator at 4° C. for 1 h; the solution was centrifuged for 10-15 min at 12,000 r/min, the supernatant was suck out to a 0.5 ml EP tube; after the quantitative protein was measured with Bio-Rad, 5× loading buffers were added, and the solution was subjected to boiling water bath for 3-5 min and then was cryopreserved at −80° C.
# 2) 15%, 12% or 10% acrylamide separation gel was prepared according to Tab. 2-1, and was then mixed with various ingredients successively; once TEMED and AP were added, the mixture was quickly rotated and poured between the two glass plates of the electrophoresis tank, leaving the space required for pouring the stacking gel.
# The separation gel was covered with a layer of isopropyl alcohol, and the gel was placed vertically at room temperature for about 30 min.
# 3) After the separation gel was completely polymerized, the isopropyl alcohol was removed, and the gel was washed with deionized water for 10 times; water was absorbed with filter paper, a stacking gel was prepared according to Tab.2-2, and a clean sample comb was immediately inserted after adding the stacking gel into electrophoresis tank.
# 4) After the stacking gel was completely polymerized, the electrophoresis instrument was filled with 1×electrophoretic buffer solution, samples were added into sample holes according to a predetermined sequence to start electrophoresis, the voltage was 50-60V when the samples were located at the stacking gel, and the voltage was adjusted to 100-140V when the samples swam to the separation gel.
# 1) After the SDS polyacrylamide gel electrophoresis was completed, the gel was placed in the transfer buffer and soaked for 30 min. 8 pieces of Whatman 3 MM filter paper and 1 piece of nitrocellulose membrane were cut out, which were consistent with the size of the gel. The nitrocellulose membrane was immersed in methanol for 1 min, and the nitrocellulose membrane was immersed in deionized water to remove air bubbles.
# 2) The gel was stacked into a “sandwich” shape and inserted into the transfer cell. The gel was connected to the cathode on one side, 100 mA for 3 h.
# 3) The transferred nitrocellulose membrane entered the Ponceau S staining solution for 5-10 min, and was shaken gently during the period. After the protein band appeared, it was rinsed with deionized water several times, and the position of the standard protein molecular weight was marked with waterproof ink.
# 4) The membrane was placed in a petri dish with a blocking solution and blocked for 2 h.
# 5) The blocking solution containing a first antibody was added at 0.1 ml/cm^2 and stayed overnight at 4° C. (dilution multiples of various antibodies are as shown in Tab 0.2-2)
# 6) The first antibody was recovered, the membrane was rinsed with PBST 3 times for 10 min each time, and was then transferred to a solution containing 150 mM NaCl and 50 mM Tris-HCl (pH 7.5) and shaken for 10 min.
# 7) A phosphate-free and sodium azide-free blocking solution containing a second antibody was added at 0.1 ml/cm2, wherein the second antibody labeled with horseradish peroxidase was diluted 1,000 times.
# 8) It was rinsed with 150 mM NaCl and 50 mmol/L Tris-HCl (pH 7.5) solution for 3 times for 10 min each time. Color development was carried out in a dark room with an ECL kit, and pictures were scanned and saved. […]
# [3] = system: non-small cell lung cancer cells A549; test: in vivo tumor growth inhibition
# [4] = system: mouse liver cancer cells H22; test: in vivo tumor growth inhibition
Compound,absolute oral bioavailability [1],"activation of PI3K protein, 4EBP1 protein, mTOR protein [2]",expression of Akt protein and S6K1 protein and of their activated proteins [2],inhibition of tumor growth in vivo [3],"inhibitory effects on AKT, S6K1 and 4EBP1 compared with rapamycin ([2]; rapamycin 20 μg/ml as control drug)",inhibition of tumor growth in vivo [4]
spiramycin,30-40%,–,–,–,–,–
CCC(=O)O[C@@H]1CC(=O)O[C@H](C)C/C=C/C=C/[C@H](O[C@H]2CC[C@H](N(C)C)[C@@H](C)O2)[C@H](C)C[C@H](CC=O)[C@H](O[C@@H]2O[C@H](C)[C@@H](O[C@H]3C[C@@](C)(O)[C@@H](OC(=O)CC(C)C)[C@H](C)O3)[C@H](N(C)C)[C@H]2O)[C@H]1OC [isovalerylspiramycin III],–,"inhibit the activation of PI3K protein, 4EBP1 protein and mTOR protein",inhibit the expression of AKT protein and S6K1 protein and the expression of their activated proteins,–,–,–
isovalerylspiramycin II,–,"inhibit the activation of PI3K protein, 4EBP1 protein and mTOR protein",inhibit the expression of AKT protein and S6K1 protein and the expression of their activated proteins,–,–,–
CO[C@@H]1[C@@H](O[C@@H]2O[C@H](C)[C@@H](O[C@H]3C[C@@](C)(O)[C@@H](OC(=O)CC(C)C)[C@H](C)O3)[C@H](N(C)C)[C@H]2O)[C@@H](CC=O)C[C@@H](C)[C@@H](O[C@H]2CC[C@H](N(C)C)[C@@H](C)O2)/C=C/C=C/C[C@@H](C)OC(=O)C[C@H]1O [isovalerylspiramycin I],–,inhibit the protein activation of the PI3K/AKT/mTOR signaling pathway,inhibit expression of Akt protein and S6K1 protein and expression of their activated proteins,obvious inhibiting effects,"more excellent inhibitory effects on AKT, S6K1 and 4EBP1",obvious inhibiting effects
